Assay results published in patent US7220732B2, “Compounds useful as photodynamic therapeutic agents” (priority 2002, dated 2007).
Where two headings read alike, the source gives them in different places.

Experiments:
Format in all cases: cell-based
HeLa cancer cells = test: Preliminary light toxicity assay; details: 24 hours exposure, 15 minutes irradiation >570 nm
Protocol: HeLa cancer calls were exposed to 2a in varying concentrations for 24 hours. 2a laden medium was removed and replaced with fresh medium. Cells were irradiated at constant temperature of 37° C. for 15 minutes with light from a 100 W or 500 W halogen lamp passed through a red glass and water filter barrier, thereby ensuring cells are irradiated with light of more than 570 nm. Irradiated cells were incubated for a further 24 hrs at 37° C. MT cell viability assay was performed.
The dark toxicity effect may be caused by the micellar delivery vehicle itself.

HeLa cells = test: Light/dark cytotoxicity study (MTT) in HeLa cells
Protocol: (§1) MRC5 and HeLa cell cultures were maintained in MEM (minimum essential medium) containing 10% (v/v) foetal calf serum (FCS), 1% (v/v) non-essential amino acids, 2 μg/ml Fungizone (Trade Mark) (amphotericin B), 50 μg/ml penicillin, 50 μg/ml streptomycin, 20 mM HEPES and 1% (v/v) L-Glutamine. Cells were passaged at least twice before use in the cytotoxicity assays.
(§2) Stock haematoporphyrin water-dimethyl sulphoxide (DMSO) (100:1 (v/v)) solutions were diluted with MEM containing 10% FCS. Cells were seeded at 5,000 cells/well in 96-well plates and incubated for 24 hr at 37° C. The 24 hour incubation period was chosen having regard to the slower uptake of haernatoporphyrin in the absence of Cremophor, when compared to the compounds of the present invention in the presence of Cremophor (see below). Cells were then incubated with haematoporphyrin in the dark for 24 hr at 37° C. The haematoporphyrin laden culture medium was then removed by filtration, the cells were washed with PBS and fresh culture medium was added to each well. A 500 W light source, passed through a red glass and water filter barrier, (to ensure cells are irradiated with light of wavelength greater than 570 nm) was used to irradiate the plates for both 15 and 30 min. Following irradiation, the cells were incubated for a further 48 hr at 37° C. before being assessed for cell survival.
(§3) Stock 2a or 2b water-Cremophor EL (Trade Mark—CAS 61791-12-6) (1:250 (v/v)) solutions were diluted with MEM containing 10% FCS. Cells were seeded at 5,000 cells/well in 96-well plates and incubated for 24 hr at 37° C. Cells were then incubated with 2a or 2b in the dark for 3 hr at 37° C. The 3 hour incubation period was chosen to reflect the faster cellular uptake of 2a or 2b in the presence of Cremophor, when compared to the cellular uptake of haematoporphyrins in the absence of Cremophor. The 2a or 2b laden culture medium was then removed by filtration, the cells were washed with PBS and fresh culture medium was added to each well. The plates were then irradiated using a 500 W light source passed through a red glass and water filter barrier, (thereby ensuring cells are irradiated with light of wavelength greater than 570 nm) for both 15 and 30 min.
(§4) Following irradiation, the cells were incubated for a further 48 hr at 37° C. before being assessed for cell survival. The dark toxicity of compounds of the present invention was also assessed in each experiment.
(§5) Cell viability was estimated using the standard MTT (microtiter tetrazolium) assay. This assay measures mitochondrial dehydrogenase activity and is based on the reduction of a soluble yellow tetrazolium salt to a blue, insoluble MTT formazan product by this enzyme. The subsequent colour change produced by viable cells was quantified using a plate reader (VICTOR^2 1420 multilabel HTS counter, Wallac). As mentioned above under the headings “Cytotoxicity”, the cells are incubated at 37° C. for 48 hours, following which the MTT solution was added to the cells at a final concentration of 0.5 mg/ml and incubated for 3 hr at 37° C. The MTT solution was then removed by filtration and 100 μl DMSO was added to each well in order to lyse the cells and release the formazan dye. The plates were read 1 hr later at 540 nm.
(§6) Prism (Trade Mark) […] was used to graph the data obtained from the MTT assays and the uptake/efflux experiments. This programme allows non-linear regression analysis and the generation of sigmoidal dose response curves. Prism (Trade Mark) also automatically calculates EC50 values.
(§7) Light toxicity assays were also carried out as described above under “Assay methods” in HeLa and MRC5 cells for haematoporphyrin (FIGS. 9 and 10), 2a (FIGS. 11 and 12) and 2b (FIGS. 13 and 14).

MRC5 cells = test: Light/dark cytotoxicity study (MTT) in MRC5 cells
Protocol: as §1, §2, §3, §4, §5, §6, §7

[1] = Confocal microscopy subcellular localisation; details: FIGS. 17–19
Protocol: Cells were seeded at a density of 30,000 cells/well in chamber slides and allowed to adhere for 24 hr. 2a (10^−5 M) was then added to each chamber and incubated at 37° C. in the dark for either 1 hr or 3 hrs at 37° C.—a one hour incubation was used for FIGS. 4 and 5. The medium was removed and the cells were washed 4 times with drug-free (2a free) medium. The cells were then fixed with 3.7% (v/v) formaldehyde for 15 min at 37° C. The fixative solution was removed and the cells were washed twice with sterile PBS. DAPI (4′,6-diamidino-2-phenylindole) nuclear stain (1/1000) was then incubated with the cells for 10 min at 37° C., following which the cells were washed twice with PBS. Cells were then mounted in Vectashield (Trade Mark) mounting medium.
The cells were viewed using a Leica TCSSL Confocal Laser Scanning microscope (the LSM510 META Confocal Microscope was used to visualise DAPI and 2a simultaneously).
These could be lysosomes which have a typical size range of 0.2–2 μm; peroxisomes which have a typical size range of 0.5–1.5 μm; or endosomes which have a typical size range of 0.2–2 μm. It will be appreciated that localisation of the photosensitising compounds of the invention in different subcellular sites may impact on how effective the photodynamic therapy may be.

For `F[B-]1(F)n2c(-c3ccccc3)cc(-c3ccccc3)c2N=C2C(c3ccccc3)=CC(c3ccccc3)=[N+]21` [Compound 2a], the dose response (HeLa cancer cells; 100 W light source, compared with 500 W) was “poorer response”, the EC50 (HeLa cancer cells; 500 W light source) was 1000 nM and the EC50 (HeLa cells; 0 J/cm^2 light (no light), read-out: EC50 (dark toxicity)) was 23000 nM. The EC50 (HeLa cells; 8 J/cm^2 light (15 mins from a 500 W light source), read-out: EC50) was 4500 nM, the EC50 (HeLa cells; 16 J/cm^2 light (30 mins from a 500 W light source), read-out: EC50) was 1300 nM and the EC50 (MRC5 cells; MRC5, 0 J/cm^2 light (no light), read-out: EC50 (dark toxicity)) was 3500 nM. For the same compound, the EC50 (MRC5 cells; MRC5, 8 J/cm^2 light (15 mins from a 500 W light source), read-out: EC50) was 2000 nM, the EC50 (MRC5 cells; MRC5, 16 J/cm^2 light (30 mins from a 500 W light source), read-out: EC50) was 460 nM and the cellular localisation [1] was “both diffuse and punctuated cytoplasmic localisation”.
